Literature values in EP4241780A1, “ENRICHED POLYPHENOLIC FRACTIONS OF ARONIA EXTRACTS AND USES THEREOF” (Diana, priority 2022, dated 2023).

System: HepG2 cells
Settings: 100% pure compounds, reference [31], Figure 4

Compound | EC50 intracellular antioxidant activity of pure compounds
O=c1c(O)c(-c2ccc(O)c(O)c2)oc2cc(O)cc(O)c12 [quercetin] | 7 µg/mL
Oc1ccc(C=Cc2cc(O)cc(O)c2)cc1 [resveratrol] | 14.8 µg/mL
